Assay results: patent publication US7902181B2, “Compounds 010” (AstraZeneca AB, priority 2007, dated 2011)
Where a name gives a salt, the structure may show the parent alone.

Target: Recombinant Human (rh) DPP1 (Homo sapiens, UniProt P53634)
Assay: Fluorescence Assay for Recombinant Human (rh) DPP1
Assay type: biochemical
Settings: rhDPP1; substrate H-Gly-Arg-AMC; pH5.0; 30 min pre-incubation, 60 min reaction at 22° C.; highest concentration 10 μM; read-out: DPP1 activity, pIC50 (converted)
Outline: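 Release of AMC from 100 μM H-Gly-Arg-AMC by rhDPP1 ([…]) in 25 mM piperazine pH 5.0, 50 mM NaCl, 5 mM DTT, 0.01% Triton X-100, 1% DMSO, 22 °C. Inhibitors (12-point half-log, top 10 μM) preincubated 30 min, reaction 60 min, fluorescence at 350/450 nm; pIC50 from 4-parameter logistic fit.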

Chain of Recombinant Human (rh) DPP1 (P53634 25-463): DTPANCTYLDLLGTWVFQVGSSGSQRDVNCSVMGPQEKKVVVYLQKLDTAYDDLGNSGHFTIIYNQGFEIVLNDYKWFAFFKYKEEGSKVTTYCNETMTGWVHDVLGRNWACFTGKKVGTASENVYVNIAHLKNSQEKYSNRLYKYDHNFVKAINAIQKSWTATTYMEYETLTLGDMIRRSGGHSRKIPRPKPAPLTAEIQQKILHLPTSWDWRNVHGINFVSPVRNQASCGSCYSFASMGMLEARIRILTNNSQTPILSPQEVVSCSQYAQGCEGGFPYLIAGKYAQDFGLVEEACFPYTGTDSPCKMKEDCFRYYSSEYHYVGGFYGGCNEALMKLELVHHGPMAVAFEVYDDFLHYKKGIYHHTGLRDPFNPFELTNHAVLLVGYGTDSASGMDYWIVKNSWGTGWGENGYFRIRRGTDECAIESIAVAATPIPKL

| SMILES | IC50 |
| --- | --- |
| Cn1c(=O)oc2ccc(-c3ccc(C[C@@H](C#N)NC(=O)[C@@H]4CCCCN4)cc3)cc21 [Example 96, (S)-N-((S)-1-Cyano-2-(4-(3-methyl-2-oxo-2,3-dihydrobenzo[d]oxazol-5-yl)phenyl)ethyl)piperidine-2-carboxamide] | 7.94 nM |
| COCCn1c(=O)oc2ccc(-c3ccc(C[C@@H](C#N)NC(=O)[C@@H]4CCCCN4)cc3)cc21 [Example 97, (S)-N-((S)-1-Cyano-2-(4-(3-(2-methoxyethyl)-2-oxo-2,3-dihydrobenzo[d]-oxazol-5-yl)phenyl)ethyl)piperidine-2-carboxamide] | 15.8 nM |
| Cn1c(=O)sc2cc(-c3ccc(C[C@@H](C#N)NC(=O)[C@@H]4CCCCN4)cc3)ccc21 [Example 98, (S)-N-((S)-1-Cyano-2-(4-(3-methyl-2-oxo-2,3-dihydrobenzo[d]thiazol-6-yl)phenyl)ethyl)piperidine-2-carboxamide] | 50.1 nM |
| N#C[C@H](Cc1ccc(-c2ccc3c(c2)sc(=O)n3CCO)cc1)NC(=O)[C@@H]1CCCCN1 [Example 99, (S)-N-((S)-1-Cyano-2-(4-(3-(2-hydroxyethyl)-2-oxo-2,3-dihydrobenzo[d]thiazol-6-yl)phenyl)ethyl)piperidine-2-carboxamide] | 63.1 nM |
| N#Cc1ccc(-c2cccc(C[C@@H](C#N)NC(=O)[C@@H]3CCCCN3)c2)cc1 [Example 100, (S)-N-((S)-1-Cyano-2-(4′-cyanobiphenyl-3-yl)ethyl)piperidine-2-carboxamide Trifluoroacetate] | 1000 nM |
| N#Cc1ccc(-c2ccc([C@H]3C[C@@]3(C#N)NC(=O)[C@@H]3CCCCN3)cc2)cc1 [Example 103, (S)-N-((1R,2R)-1-Cyano-2-(4′-cyanobiphenyl-4-yl)cyclopropyl)piperidine-2-carboxamide Trifluoroacetate] | 158 nM |
| N#C[C@H](Cc1ccc(-c2cccc(CN3CCOCC3)c2)cc1)NC(=O)[C@@H]1CCCCN1 [Example 109, (S)-N-((S)-1-Cyano-2-(3′-(morpholinomethyl)biphenyl-4-yl)ethyl)piperidine-2-carboxamide Ditrifluoroacetate] | 158 nM |

Continued, values first:

| IC50 | SMILES |
| --- | --- |
| 3.16 nM | CN1CCN(S(=O)(=O)c2ccc(-c3ccc(C[C@@H](C#N)NC(=O)[C@@H]4CCCCN4)cc3)cc2)CC1 [Example 95, (S)-N-((S)-1-Cyano-2-(4′-(4-methylpiperazin-1-ylsulfonyl)biphenyl-4-yl)ethyl)piperidine-2-carboxamide Trifluoroacetate] |
| 39.8 nM | CS(=O)(=O)c1cc(-c2ccc(C[C@@H](C#N)NC(=O)[C@@H]3CCCCN3)cc2)ccc1CC#N [Example 101, (S)-N-((S)-1-Cyano-2-(4′-(cyanomethyl)-3′-(methylsulfonyl)biphenyl-4-yl)ethyl)-piperidine-2-carboxamide Trifluoroacetate] |
| 3160 nM | N#C[C@H](Cc1ccc(S(=O)(=O)c2ccccc2)cc1)NC(=O)[C@@H]1CCCCN1 [Example 102, (S)-N-((S)-1-Cyano-2-(4-(phenylsulfonyl)phenyl)ethyl)piperidine-2-carboxamide] |
| 79.4 nM | N#C[C@@]1(NC(=O)[C@@H]2CCCCN2)C[C@@H]1c1ccc(-c2ccc(S(=O)(=O)N3CCC3)cc2)cc1 [Example 104, (S)-N-((1R,2R)-2-(4′-(Azetidin-1-ylsulfonyl)biphenyl-4-yl)-1-cyanocyclopropyl)piperidine-2-carboxamide Trifluoroacetate] |
| 20 nM | N#C[C@H](Cc1ccc(-c2ccc(OC(F)(F)F)cc2)cc1)NC(=O)[C@@H]1CCCCN1 [Example 105, (S)-N-((S)-1-Cyano-2-(4′-(trifluoromethoxy)biphenyl-4-yl)ethyl)piperidine-2-carboxamide] |
| 12.6 nM | CS(=O)(=O)c1ccc(-c2ccc(C[C@@H](C#N)NC(=O)[C@@H]3CCCCN3)cc2)cc1 [Example 106, (S)-N-((S)-1-Cyano-2-(4′-(methylsulfonyl)biphenyl-4-yl)ethyl)piperidine-2-carboxamide] |
| 5.01 nM | CCN1CCN(S(=O)(=O)c2ccc(-c3ccc(CC(C#N)NC(=O)[C@@H]4CCCCN4)cc3)cc2)CC1 (stereo partly drawn) [Example 107, ((2S)-N-(1-Cyano-2-(4′-(4-ethylpiperazin-1-ylsulfonyl)biphenyl-4-yl)ethyl)piperidine-2-carboxamide Ditrifluoroacetate] |
| 31.6 nM | CN1CCCN(S(=O)(=O)c2ccc(-c3ccc(CC(C#N)NC(=O)[C@@H]4CCCCN4)cc3)cc2)CC1 (stereo partly drawn) [Example 108, (2S)-N-(1-Cyano-2-(4′-(4-methyl-1,4-diazepan-1-ylsulfonyl)biphenyl-4-yl)ethyl)piperidine-2-carboxamide Ditrifluoroacetate] |
| 158 nM | N#C[C@H](Cc1ccc(-c2ccc3c(c2)CCNC3)cc1)NC(=O)[C@@H]1CCCCN1 [Example 110, (S)-N-((S)-1-Cyano-2-(4-(1,2,3,4-tetrahydroisoquinolin-6-yl)phenyl)ethyl)piperidine-2-carboxamide Ditrifluoroacetate] |
